Measured values taken from patent publication US20210355065A1, “CB-0406 tromethamine salt” (CymaBay Therapeutics, Inc., priority 2020, published 2021).

Columns and labels:
[1] = Description: CB-0406 tromethamine salt has been characterized using DSC, TGA, XRPD, hot stage microscopy, and solution ^1H NMR. CB-0406 tromethamine salt has also been tested by relative humidity stressing, and its solubility measured in simulated intestinal fluid without pancreatin.
[2] = 75% RH and 41° C.
Method: Relative humidity (RH) stressing of CB-0406 tromethamine salt was performed by placing solid CB-0406 tromethamine salt in an RH chamber containing a saturated aqueous solution of sodium chloride (˜75% RH), potassium chloride (˜84% RH, RT/-82% RH, 40° C.), sodium bromide (˜58% RH, RT), or potassium sulfate (˜97% RH, RT/-96% RH, 40° C.), with excess salt present. The chamber was sealed and left at ambient temperature or placed in an oven at elevated temperature.

[3] = at 95% relative humidity relative to weight at 5% relative humidity; approx. 0.2 equivalents of water; essentially completely reversible
Method: A DVS analysis of CB-0406 tromethamine salt was performed using a VTI SGA-100 Vapor Sorption Analyzer. The sample was not dried prior to analysis, and data were not corrected for the initial moisture content of the sample. Equilibrium criteria used for analysis were less than 0.010% weight change in 5 minutes, with a maximum equilibration time of 3 hours if the weight criterion was not met. […] Sodium chloride and polyvinylpyrrolidone were used as calibration standards.

CYP 2C9 = CYP 2C9 (Homo sapiens, UniProt P11712); settings: tolbutamide hydroxylation assay; relative to (S)-enantiomer; cited from earlier work
CYP 2C9, sequence (P11712 whole entry, species assumed): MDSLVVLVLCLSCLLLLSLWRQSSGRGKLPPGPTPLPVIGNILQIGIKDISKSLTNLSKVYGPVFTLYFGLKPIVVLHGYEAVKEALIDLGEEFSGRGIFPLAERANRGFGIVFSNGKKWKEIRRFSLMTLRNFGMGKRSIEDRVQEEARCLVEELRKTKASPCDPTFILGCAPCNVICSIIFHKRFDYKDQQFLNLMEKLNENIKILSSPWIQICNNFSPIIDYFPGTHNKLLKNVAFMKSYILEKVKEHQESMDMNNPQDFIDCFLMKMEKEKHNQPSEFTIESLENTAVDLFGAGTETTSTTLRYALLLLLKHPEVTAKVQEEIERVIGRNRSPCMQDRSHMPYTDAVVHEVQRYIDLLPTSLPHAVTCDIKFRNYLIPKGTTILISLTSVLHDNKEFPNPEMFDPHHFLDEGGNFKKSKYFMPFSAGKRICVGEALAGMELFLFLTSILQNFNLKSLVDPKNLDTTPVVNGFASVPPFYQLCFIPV

Compound	solubility ([1]; simulated intestinal fluid without pancreatin) [mg/mL]	solubility in simulated intestinal fluid, fold greater than that of CB-0406 ([1]; simulated intestinal fluid, relative to CB-0406) [fold]	appearance after RH stressing ([2]; at 7 and 9 days)	XRPD analysis after RH stressing ([2]; at 18 and 46 days, some increase in low angle scattering background)	net weight gain (DVS) [3]	fold less active as an inhibitor of CYP 2C9 than its (S)-enantiomer (CYP 2C9)
1,3-dihydroxy-2-(hydroxymethyl)propan-2-aminium (2R)-2-(4-chlorophenyl)-2-[3-(trifluoromethyl)phenoxy]acetate [CB-0406 tromethamine salt]	> 200	≥ 60	free-flowing solid	consistent with CB-0406 tromethamine salt	less than 0.8%	–
O=C(O)[C@H](Oc1cccc(C(F)(F)F)c1)c1ccc(Cl)cc1 [CB-0406, (2R)-2-(4-chlorophenyl)-2-[3-(trifluoromethyl)phenoxy]acetic acid]	–	–	–	–	–	approximately 20 fold
